From patent US20010039041A1, “Immunosuppressive sesbanimide compositions and methods of treatment using same” (priority 1995, published 2001)
≈ marks a conversion by molar mass, not a printed value. Where “and” joins values, the source holds several entries; their conditions need not be identical. Equal entries are not always repeated. Where two headings read alike, the source gives them in different places.

Legend:
[1] = tested on: CB6-F1 mice grafted with Balb/c splenic lymphocytes; details: for Alive Day 8 / Optimal Dose: GVHR; for Alive Day 8 / Index: at optimal dose; for Optimal Dose: i.p. per diem for 7 days; for Index: spleen index vs syngeneic control, >1.3 = successful graft rejection
Excerpt: Graft-vs-Host Reaction (GVHR)
The GVHR used for in vivo screening is a modification of the Simonsen's technique. The F1 hybrid host animal is grafted with immunocompetent spleens cells from a parent strain. The host spleen cells are incompatible to grafted donor cells but are themselves not competent to react against them (shared parental genetic determinants). The rejection mechanism in this model is, therefore, from the graft toward the host. The grafted cells, via intraperitoneal injection, migrate to the host's spleen. There they proliferate in response to the difference in genetic determinants inherited from the other parental strain. The index used to measure the success of the GVHR is spleenomegally (increased spleen weight due to cellular proliferation of grafted lymphocytes). An index of 1.0 is equivalent to the spleen weight of syngeneic grafted controls. An index >1.3 (graft index) is considered to be a successful graft rejection of the recipient animal. Any sample that prevents spienomegaly (<graft index) is considered as an immunosuppressive active. Likewise, enhancement of splenomegaly (>graft index) is due either to immunostimulatory synergy of the response or nonspecific immunostimulation. This assay is a cell-mediated type of response and is the direct in vivo correlate of the MLR.
The GVHR is widely used as an in vivo model in transplantation research laboratories. As in models for delayed sensitivity and allograft rejection, it also has clinical implications, especially in bone marrow transplantation. In this situation, immunocompetent lymphocytes transferred with the transplanted bone marrow cells can recirculate into the host bone marrow. These cells from the graft can react against the host (i.e., graft-vs-host disease) with deleterious consequences.
The highest test dose is selected from a previously determined maximum tolerated dose (MTD) resulting from a once only intraperitoneal (i.p.) injection of two animals/dose (e.g., 400, 100, 40 and 10 mg/kg) These animals are followed for five days to allow for possible toxic side effects of the test compound.
In the GVHR, male, CB6-F1 mice (H2^d+H2^b) are grafted by i.p. injection of 50×106 Balb/c (H2^d) splenic lymphocytes conditioned in high-glucose (4500 mg/L) Dulbecco's modified Eagles medium. […] Grafted positive controls, nongrafted negative controls and syngeneic grafted animals all receive vehicle i.p. injections during this time. A standard of cyclophosphamide (200 mg/kg) is used. Experimental animals are sacrificed on D8 and spleens removed. The data is reported as a spleen index compared to the weight of the syngeneic control spleen—both corrected for the total body weights of the animals. In addition, the spleens are homogenized and the lymphocytes enumerated and viabilities determined. The data from both determinations are also expressed as a percent immunomodulation of the positive controls. all data is corrected for nonspecific effects measured from nongrafted animals. Moribund animals are sacrificed immediately.

[2] = tested on: mixed lymphocytes from Balb/c (H-2d) and C57BI/6 (H-2b) mice; experiment: Murine Mixed Lymphocyte Reaction (MLR), 3H-thymidine incorporation; assay type: cell-based; details: for IC50: Mus musculus, Lymphocyte; for Index Cytotox./Activity: ratio LcV IC50 / MLR IC50
Protocol: Mixed Lymphocyte Reaction (MLR)
The MLR is an in vitro test of cellular immunity in which murine lymphocytes from genetically dissimilar animals are cocultured to mutually induce cell proliferation (i.e., two-way MLR method). Mixed cell suspensions, together with the test compound, are incubated for 96 hours and subsequently pulsed for 15 hours with tritiated-thymidine (3H-Thy), a radioisotopically labelled nucleic acid. Tritiated-thymidine is incorporated into the DNA of proliferating cells. Data from the MLR is generated as dpm of radioactivity which is then expressed as a percentage of cellular activity, relative to control, using the following reduced formula: [formula]
A 50% inhibitory concentration (IC50) value was interpolated for sesbanimide containing fractions tested. A ratio between cytotoxicity, as determined from the LcV described below, and activity in the MLR is also presented. A high ratio distinguishes noncytotoxic immunosuppression from general cytotoxicity.
Reconstituted extract (10 μl) is added in two sets of duplicates into wells of a 96-well microtiter plate and evaporated to dryness at room temperature. […] To the other set of sample duplicates is added complete media without cells so as to provide for background color control data. All plated are incubated in a 5% CO2 incubator for 96 hours and pulsed for 15 hours with 100 μl containing 1 μCi/well tritiated-thymidine (^3H-Thy). The plates are harvested onto glass fiber filter discs using an INOTECH harvester. The filter discs are counted directly using an INOTECH dry scintillation counter. The activity of the discs are calculated as a relative proliferative percent of a mean control value as described above.

[3] = tested on: murine lymphocytes (Balb/c); experiment: Lymphocyte Viability / Cytotoxicity Assay (LcV), MTT; assay type: cell-based; details: Balb/c lymphocytes, MTT viability (cytotoxicity)
Protocol: (§1) Lymphocyte Cytotoxicity (LcV) Assay
(§2) The LCV is a in vitro cytotoxicity assay for murine lymphocytes designed by the investigator. The LCV is similar to the MLR with the exception that only one cell population (Balb/c) is incubated with the test compound to assess cytotoxicity as distinct from the antiproliferative effects of a test compound. That is, unlike the unambiguous determination of immunostimulation from MLR data, a judgement of immunosuppression can not be immediately interpreted. Cytotoxicity (e.g., due to direct cell lysis) from a compound can occur which would alter viability determinations inherent in the generation of MLR data. […] The percent viable cells is determined by the MTT-thiazolyl blue method after a similar incubation to the MLR of lymphocytes with the test sample. MTT is a substrate converted by mitochoridrial enzymes in living cells to a purple, water-insoluble, formazan crystal. If there is no significant reduction in cell viability, as determined by this detection method, then damaged cells are probably not present for low data values generated in the MLR. Colorimetric data from the LCV is calculated as a percentage of viability, relative to control, using the following formula: [formula]
(§3) A 50% viability, or 50% cytotoxicity, (IC50) value was interpolated for sesbanimide containing fractions tested.
(§4) Lymphocytes are prepared as described above for the MLR with the exception that cells from only one murine strain are prepared (BLAB/c). Reconstituted extract (10 μl) is added in two sets of duplicates into wells of a 96-well microtiter plate and evaporated to dryness at room temperature. Lymphocytes (2.5×10^6 cells/ml) are added to one set of duplicates and to wells containing no sample. Media containing no cells are added to the other set of duplicates to provide background color control data. Plated are incubated in a 5% CO2 incubator for 4 hours and pulsed with MTT-thiazolyl blue for 6-8 hours.

[4] = as above; assay type: cell-based, murine; details: Balb/c, mouse, murine lymphocytes (Balb/c); text summary of Table 4
Protocol: as §1, §2, §3, §4

CD-1 or CB6F1 Mice = experiment: Toxicology (MTD, LD50) in mice; assay type: in vivo, mouse
Protocol: (§5) The MTD establishes the parameters to establish in vivo dosages initiated for studying the Graft-v-Host reaction and skin grafting. The Swiss conventional mouse (Charles River CD-1) is used in a weight range from 18-30 g.
(§6) A saline solution containing 5% non-denatured EtOH and a drop of Tween-80 detergent is used a vehicle for dilution. Stirring and sonication are utilized to effect solution or suspension of the composition. The composition is injected within one hour of preparation. Animals are observed for five days (MTD) after injection for toxic symptoms and/or death. Group weights are taken D0 and D5. Surviving animals are sacrificed on D5 (MTD). A ‘Daily Logsheet’ used in the toxicity studies is appended.

[5] = Toxicology (MTD, LD50) in mice; assay type: in vivo, mouse; details: mouse, in vivo; CD-1 or CB6F1 mice
Protocol: as §5, §6

[6] = tested on: Agrobacterium species strain PH-103; experiment: Antibiotic sensitivity (Difco sensitivity discs); assay type: cell-based, Agrobacterium sp.; details: strain PH-103, ATCC 231 basal medium, 27° C.
Protocol: The culture was incubated at 27° C. and records of the results were made after suitable incubation times. All media were prepared with 2.7% Instant Ocean Salts and pH was approximately neutral (7-7.4). The description of the culture and test results are as follows: […]

For `O=P1(N(CCCl)CCCl)NCCCO1` (stereo not drawn) [Cyclophosphamide, cyclophosphamide], the “Alive Day 8” value [1] was 100% and 60%, the “Optimal Dose” value [1] was 200.0 mg/kg and the Index [1] was 0.23 and 0.28.
For `C=C1COC(O)(C2OCOC(C3CC(=O)NC(=O)C3)C2O)C1C` (stereo not drawn) [Sesbanimide, sesbanimide], the “separation of cytotoxicity to biological activity” value ([2]; LcV vs MLR) was over 3 log, the IC50 ([2]; in vitro cell-mediated immune response, text summary of Table 4, read-out: biological activity IC50) was 0.00015 to 0.0036 µg/mL (≈ 0.000458 to 0.011 µM) and the IC50 ([2]; murine two-way MLR, 96 h incubation, 15 h 3H-Thy pulse, read-out: MLR IC50) was 0.00015 µg/mL (≈ 0.000458 µM). For the same molecule, the “Index Cytotox./Activity” value [2] was 2,777, the IC50 ([3]; Mus musculus, Lymphocyte) was 0.417 µg/mL (≈ 1.27 µM) and the IC50 at 4 h [4] was 0.417 to 3.6 µg/mL (≈ 1.27 to 11 µM). For the same molecule, the “Alive Day 8” value [1] was 40%, the “Optimal Dose” value [1] was 0.2 mg/kg and the Index [1] was 0.92. The “Maximum Tolerated” value (CD-1 or CB6F1 Mice; CD-1 or CB6F1 mice) was 0.56 mg/kg, the “Alive Day 5” value (CD-1 or CB6F1 Mice; at maximum tolerated dose, CD-1 or CB6F1 mice) was 100% and the LD50 determination (CD-1 or CB6F1 Mice; between 1.05 and 0.56 mg/kg/total dose, QD 1-7 experiment in CB6F1 mice) was 0.805 mg/kg/total dose. The toxicity (CD-1 or CB6F1 Mice; pure compound at 56, 10.5 and 5.6 mg/kg) was “toxic”, the “total dose showing no toxicity” value (CD-1 or CB6F1 Mice; pure compound, in vivo) was at most 0.56 mg/kg and the LD50 at 7 days [5] was 0.805 mg/kg.
For `CCn1cc(C(=O)O)c(=O)c2ccc(C)nc21` [nalidixic acid], the Antibiotic sensitivity [6] was “Sensitive”.
In the case of `CN[C@H](CC(C)C)C(=O)N[C@H]1C(=O)N[C@@H](CC(N)=O)C(=O)N[C@H]2C(=O)N[C@H]3C(=O)N[C@H](C(=O)N[C@H](C(=O)O)c4cc(O)cc(O)c4-c4cc3ccc4O)[C@H](O)c3ccc(c(Cl)c3)Oc3cc2cc(c3O[C@@H]2O[C@H](CO)[C@@H](O)[C@H](O)[C@H]2O[C@H]2C[C@](C)(N)[C@H](O)[C@H](C)O2)Oc2ccc(cc2Cl)[C@H]1O` [vancomycin], the Antibiotic sensitivity [6] is reported as “resistant”.
In the case of polymyxin, the Antibiotic sensitivity [6] is reported as “resistant”.
For sesbanimide, the “MLR IC50” value ([2]; murine two-way MLR, 96 h incubation, 15 h 3H-Thy pulse) was under 0.0075 µg/mL, the “Index Cytotox./Activity” value [2] was >1,746 and the “LcV IC50” value [3] was 13.100 µg/mL.
